For experiment [1], the system named is Transgenic 5XFAD mice. As to the kind of experiment: Novel object recognition in transgenic 5XFAD mice model of Alzheimer's disease. Type of experiment: in vivo, mouse. The following applies: 30 mg/kg orally once a day for 10 days. The text has this:
FIG. 6 reports the results of Novel Object Recognition test in transgenic 5XFAD mice model of Alzheimer disease. (Obj C=new object) *p<0.0001, unpaired t Student test.
Transgenic 5XFAD mice, overexpressing the human amyloid precursor protein (APP695) with Swedish (K670N/M671L), Florida (I716V) and London (V717I) familial Alzheimer's disease (FAD) mutations, as well as human Presenilin1 (PS1) with M146L and L286V FAD mutations were used as Alzheimer's disease model. 6 months old female transgenic 5XFAD mice and wild-type controls (WT) were treated orally (gavage) with 30 mg/kg of CR4056 or vehicle once a day for a period of 10 days (n=4 WT/Vehicle, 8 WT/CR4056, 2 5XFAD/Vehicle, and 3 5XFAD/CR4056). Following repeated treatments, hippocampal-dependent memory was tested using the novel object recognition task. The object recognition test measures working and spatial memory. In the training phase, animals were placed in the arena with objects constructed from large plastic bricks. In the testing phase, one object was replaced by a novel object. Animals were returned in the arena and allowed to explore. Exploration of objects was observed and recorded. Mice should recognize that a new object has been placed and therefore explore this object for longer time.

Experiment [2] concerns Iba1-positive microglial cells. Kind of experiment: Spinal microglia activation (Iba1 immunofluorescence) in CFA inflammatory model. It counts as in vivo, rat. The following applies: rats, 6 mg/kg os single administration 72 hours post-CFA, evaluated after 90 minutes. How it is done: FIG. 2 reports the results of spinal microglia activation at 72 hours following CFA injection. The quantification of microglia activation in ipsilateral L5 SC dorsal horn was determined as the number of Iba1-positive microglia, displaying a clearly swollen cell body with reduced processes, within the analyzed selected frame of the superficial laminae. Data represent the mean of 5 animals/group. Ordinary one way ANOVA followed by Dunnet's multiple comparison (**p<0.05).
Microglial cells activation was evaluated by immunofluorescence staining, measuring the expression of ionized calcium-binding adapter molecule 1 (Iba-1) in ipsilateral L5 spinal cord in complete Freund's adjuvant (CFA) model. […]
CR4056 (6 mg/kg, os) was administered 72 hours post-CFA and after 90 minutes animals were deeply anesthetized with an overdose of urethane (1.5 g·kg−1, i.p.) and then transcardially perfused with 250 mL 0.9% saline containing 1% heparin (5000 UI·mL−1), followed by 500 mL 10% formalin (i.e., 4% paraformaldehyde, Bio-Optica Spa, Milan, Italy). […] For each section, a representative image of both the ipsilateral and the contralateral dorsal horn (laminae I-III) of the L5 spinal cord was captured at 20× magnification, using consistent exposure times across all sections, and then analysed. […] For each animal (n=5 per group) 6 non-consecutive sections were analysed and results were averaged.

The test system of experiment [3] is Rats treated with scopolamine. As to the kind of experiment: Passive avoidance in scopolamine-induced memory impairment. Type of experiment: in vivo, rat. Here is the method: FIG. 3 reports results of a passive avoidance test in the model of scopolamine-induced memory loss. Rats treated with scopolamine (Sco, 1 mg/kg) or physiological solution (Sal) received CR4056 10 mg/kg bid or its vehicle (MC). t student test. *p<0.05; **P<0.01 (n=6).
Scopolamine, a nonselective muscarinic receptor antagonist, produces a blocking of the activity of the muscarinic acetylcholine receptor, and the concomitant appearance of transient cognitive amnesia and electrophysiological changes, which resemble those observed in Alzheimer's disease. Therefore, scopolamine administration may be considered as a psychopharmacological model of Alzheimer's disease (Lenz R A, Psychopharmacology (Berl), 2012). Passive avoidance is a behavioural model of memory impairment.
The apparatus consisted of a two-compartment box: light and dark compartments separated by a door. The rat was placed in the center of the light compartment, with the door between two compartments closed. After 4 seconds, the door was opened and the latency time, i.e., the time taken by the rat to enter all four paws into the dark compartment was recorded.
Once the rat moved completely in the dark compartment, the door was closed and immediately a mild foot shock was delivered through the grid floor. Thus, during the initial phase the animal learned that the moving to the dark compartment had negative consequences. […]

Entries after “also recorded” stand apart in the source; their conditions may differ.

As for `c1ccc(-c2ncc3cc(-n4ccnc4)ccc3n2)cc1` [CR4056, 2-phenyl-6-(1H-imidazol-1-yl)quinazoline], the “Working and spatial memory, novel object recognition” value in experiment [1] was “significant improvement in the working and spatial memory”. Moreover, the “Microglia activation in ipsilateral L5 spinal cord dorsal horn (Iba1-positive activated microglia)” value in experiment [2] is reported as “completely restored the basal conditions of microglia; also recorded: significantly reduced microglia activation”. Also, the “Escape latency time, passive avoidance, sham animals” value in experiment [3] (rats not treated with scopolamine, CR4056 10 mg/kg bid vs vehicle (MC)) is “not different from its vehicle”. In experiment [3] (rats, scopolamine 1 mg/kg sc, CR4056 10 mg/kg bid orally), the “Escape latency time, passive avoidance, scopolamine-treated animals” value is listed as “counteracted the memory impairment”.

These data come from patent US20240091227A1, “Use Of 2-Phenyl-6-(1H-Imidazol-1-YL) Quinazoline For Treating Neurodegenerative Diseases, Preferably Alzheimer's Disease” (ROTTAPHARM BIOTECH S.R.L., priority 2019, published 2024).
